What was measured:
5-HT transporter = molecular target: T1, 5-HT transporter (Rattus norvegicus, UniProt P31652); assay: Inhibition of 5-HT uptake in rat brain synaptosomes; assay type: biochemical; conditions: Table III, rat, 1 μM; for inhibition at 1 µM: read-out: Uptake 5-HT, % inhibition
T1 construct: synaptosomes of rat brain areas are freshly isolated; from tissue; host or cells: rat brain synaptosomes (P2 fraction) from marrow and pons

[1] = system: batrachotoxin (BTX) binding site of the sodium channel; assay: Affinity to the batrachotoxin (BTX) binding site of the sodium channel; conditions: Table III; rat cerebrocortex synaptosomes; test concentration not given

T1 sequence (P31652 whole entry): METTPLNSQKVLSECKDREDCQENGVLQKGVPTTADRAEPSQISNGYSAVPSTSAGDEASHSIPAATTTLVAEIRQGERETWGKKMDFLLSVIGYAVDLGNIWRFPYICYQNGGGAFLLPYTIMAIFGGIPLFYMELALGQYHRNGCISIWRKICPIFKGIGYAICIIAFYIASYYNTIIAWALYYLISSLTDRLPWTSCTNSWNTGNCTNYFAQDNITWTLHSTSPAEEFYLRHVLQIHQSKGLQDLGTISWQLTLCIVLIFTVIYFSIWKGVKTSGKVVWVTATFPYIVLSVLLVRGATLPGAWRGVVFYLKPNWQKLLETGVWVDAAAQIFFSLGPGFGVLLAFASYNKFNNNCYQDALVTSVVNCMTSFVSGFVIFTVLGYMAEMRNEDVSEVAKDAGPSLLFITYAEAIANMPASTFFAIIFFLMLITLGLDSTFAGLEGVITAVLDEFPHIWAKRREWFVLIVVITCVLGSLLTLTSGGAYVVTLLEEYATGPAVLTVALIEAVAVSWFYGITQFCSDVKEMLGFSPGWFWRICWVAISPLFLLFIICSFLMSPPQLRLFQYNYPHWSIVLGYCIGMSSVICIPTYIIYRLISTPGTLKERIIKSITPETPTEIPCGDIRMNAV

Compound	inhibition at 1 µM (5-HT transporter) [%]	BTX inhibition [1]	Uptake 5-HT, rat, 1 μM, % inhibition (5-HT transporter) [%]
CN1C(=O)C(Cc2ccccc2)NC12CCN(C(=O)C=Cc1ccccc1Cl)CC2 (stereo not drawn) [Example 203, 3-Benzyl-8-[3-(2-chlorophenyl)acryloyl]-1-methyl-1,4,8-triazaspiro[4,5]decan-2-one]	34	48	–
COC(=O)c1ccc(CN2C(=O)C(C(C)C)NC23CCN(C(=O)c2ccc(C(F)(F)F)c(F)c2)CC3)cc1 (stereo not drawn) [Example 204, Methyl 4-[8-(3-fluoro-4-trifluoromethylbenzoyl)-3-isopropyl-2-oxo-1,4,8-triazaspiro[4,5]dec-1-ylmethyl]benzoate]	42	44	–
CCCCN1C(=O)C(Cc2ccccc2)NC12CCN(C(=O)c1ccc(I)cc1)CC2 (stereo not drawn) [Example 207, 3-Benzyl-1-butyl-8-(4-Iodobenzoyl)-1,4,8-triazaspiro[4,5]decan-2-one]	76	57	–
O=C(CCCOc1ccccc1)N1CCC2(CC1)NC(Cc1ccccc1)C(=O)N2Cc1ccccc1 (stereo not drawn) [Example 209, 1,3-Dibenzyl-8-(4-phenoxybutyryl)-1,4,8-triazaspiro[4,5]decan-2-one]	69	67	–
CC(C)CC1NC2(CCN(C(=O)c3cc(C(C)(C)C)nn3C)CC2)N(Cc2cccc(C#N)c2)C1=O (stereo not drawn) [Example 218, 3-[8-(5-tert-Butyl-2-methyl-2H-pyrazole-3-carbonyl)-3-isobutyl-2-oxo-1,4,8-triazaspiro[4,5]dec-1-ylmethyl]benzonitrile]	57	39	–
CSCCC1NC2(CCN(C(=O)CCC3CCCC3)CC2)N(Cc2ccccc2)C1=O (stereo not drawn) [Example 221, 1-Benzyl-8-(3-cyclopentylpropionyl)-3-(2-methylsulfanylethyl)-1,4,8-triazaspiro[4,5]decan-2-one]	79	36	–
O=C(C=Cc1ccccc1)N1CCC2(CC1)NC(Cc1ccccc1)C(=O)N2Cc1ccccc1 (stereo not drawn) [Example 223, 1,3-Dibenzyl-8-(3-phenylacryloyl)-1,4,8-triazaspiro[4,5]decan-2-one]	49	62	–
CC(C)C1NC2(CCN(C(=O)C=Cc3ccccc3Cl)CC2)N(CCOc2ccccc2)C1=O (stereo not drawn) [Example 225, 8-[3-(2-Chlorophenyl)acryloyl]-3-isopropyl-1-(2-phenoxyethyl)-1,4,8-triazaspiro[4,5]decan-2-one]	32	55	–
CC(C)(C)CC(=O)N1CCC2(CC1)NC(Cc1ccccc1)C(=O)N2Cc1ccccc1 (stereo not drawn) [Example 230, 1,3-Dibenzyl-8-(3,3-dimethylbutyryl)-1,4,8-triazaspiro[4,5]decan-2-one]	72	30	–
CC(C)C1NC2(CCN(C(=O)c3ccccc3C(=O)OCc3ccccc3)CC2)N(Cc2ccccc2)C1=O (stereo not drawn) [Example 236, Benzyl 2-(1-benzyl-3-isopropyl-2-oxo-1,4,8-triazaspiro[4,5]decan-8-carbonyl)benzoate]	48	50	–
CCC(C(=O)N1CCC2(CC1)NC(Cc1ccccc1)C(=O)N2Cc1ccccc1)c1ccccc1 (stereo not drawn) [Example 237, 1,3-Dibenzyl-8-(2-phenylbutyryl)-1,4,8-triazaspiro[4,5]decan-2-one]	63	42	–
CSCCC1NC2(CCN(C(=O)c3c(Cl)ccc(C)c3F)CC2)N(Cc2ccccc2)C1=O (stereo not drawn) [Example 240, 1-Benzyl-8-(6-chloro-2-fluoro-3-methylbenzoyl)-3-(2-methylsulfanylethyl)-1,4,8-triazaspiro[4,5]decan-2-one]	54	30	–
CCCCN1C(=O)C(Cc2ccccc2)NC12CCN(C(=O)c1cc(C(C)(C)C)nn1C)CC2 (stereo not drawn) [Example 249, 3-Benzyl-1-butyl-8-(5-tert-butyl-2-methyl-2H-pyrazole-3-carbonyl)-1,4,8-triazaspiro[4,5]decan-2-one]	55	34	–
CCSc1ncccc1C(=O)N1CCC2(CC1)NC(CC(C)C)C(=O)N2CCCCOC(C)=O (stereo not drawn) [Example 257, Butyl 4-[8-(2-ethylsulfanylpyridin-3-carbonyl)-3-isobutyl-2-oxo-1,4,8-triazaspiro[4,5]dec-1-yl]acetate]	–	35	59
O=C(c1ccc(-c2ccccc2)cc1)N1CCC2(CC1)NCC(=O)N2Cc1ccccc1F [Example 262, 8-(Biphenyl-4-carbonyl)-1-(2-fluorobenzyl)-1,4,8-triazaspiro[4,5]decan-2-one]	60	70	–
CC(C)CC1NC2(CCN(C(=O)c3ccc4nonc4c3)CC2)N(Cc2c(Cl)cccc2Cl)C1=O (stereo not drawn) [Example 275, 8-(Benzo[1,2,5]oxadiazole-5-carbonyl)-1-(2,6-dichlorobenzyl)-3-isobutyl-1,4,8-triazaspiro[4,5]decan-2-one]	33	61	–
CC(C)CC1NC2(CCN(C(=O)c3ccc(Cl)nc3)CC2)N(Cc2c(Cl)cccc2Cl)C1=O (stereo not drawn) [Example 279, 8-(6-Chloropyridin-3-carbonyl)-1-(2,6-dichlorobenzyl)-3-isobutyl-1,4,8-triazaspiro[4,5]decan-2-one]	48	60	–

Compound	inhibition at 1 µM (5-HT transporter) [%]	BTX inhibition [1]	Uptake 5-HT, rat, 1 μM, % inhibition (5-HT transporter) [%]
COc1ccc(C(=O)N2CCC3(CC2)NCC(=O)N3Cc2ccccc2F)cc1 [Example 285, 1-(2-Fluorobenzyl)-8-(4-methoxybenzoyl)-1,4,8-triazaspiro[4,5]decan-2-one]	65	32	–
CCOC(=O)CN1C(=O)C(CC(C)C)NC12CCN(C(=O)CC(C)C)CC2 (stereo not drawn) [Example 288, Ethyl [3-isobutyl-8-(3-methylbutyryl)-2-oxo-1,4,8-triazaspiro[4,5]dec-1-yl]acetate]	45	32	–
CCCC(C)C(=O)N1CCC2(CC1)NC(CC(C)C)C(=O)N2CC(=O)OCC (stereo not drawn) [Example 291, Ethyl [3-isobutyl-8-(2-methylpentanoyl)-2-oxo-1,4,8-triazaspiro[4,5]dec-1-yl]acetate]	38	33	–
COC(=O)c1ccc(CN2C(=O)CNC23CCN(C(=O)c2cc(C(C)(C)C)oc2C)CC3)cc1 [Example 292, Methyl 4-[8-(5-tert-butyl-2-methylfuran-3-carbonyl)-2-oxo-1,4,8-triazaspiro[4,5]dec-1-ylmethyl]benzoate]	40	40	–
CCOC(=O)CN1C(=O)C(Cc2ccccc2)NC12CCN(C(=O)C1CC1)CC2 (stereo not drawn) [Example 293, Ethyl (3-benzyl-8-cyclopropanecarbonyl-2-oxo-1,4,8-triazaspiro[4,5]dec-1-yl)acetate]	55	31	–
CCOC(=O)CN1C(=O)C(Cc2ccccc2)NC12CCN(C(=O)CC(C)C)CC2 (stereo not drawn) [Example 294, Ethyl [3-benzyl-8-(3-methylbutyryl)-2-oxo-1,4,8-triazaspiro[4,5]dec-1-yl]acetate]	53	33	–
C=CCN1C(=O)C(C(C)C)NC12CCN(C(=O)Cc1cccc(OC)c1)CC2 (stereo not drawn) [Example 296, 1-Allyl-3-isopropyl-8-[2-(3-methoxyphenyl)acetyl]-1,4,8-triazaspiro[4,5]decan-2-one]	30	36	–
CCCCC(=O)N1CCC2(CC1)NC(Cc1ccccc1)C(=O)N2CC(=O)OCC (stereo not drawn) [Example 299, Ethyl (3-benzyl-2-oxo-8-pentanoyl-1,4,8-triazaspiro[4,5]dec-1-yl)acetate]	66	36	–
COC(=O)c1ccc(CN2C(=O)CNC23CCN(C(=O)c2ccc(C(C)(C)C)cc2)CC3)cc1 [Example 305, Methyl 4-[8-(4-tert-Butylbenzoyl)-2-oxo-1,4,8-triazaspiro[4,5]dec-1-ylmethyl]benzoate]	37	51	–
CCCc1c(C(=O)N2CCC3(CC2)NC(Cc2ccccc2)C(=O)N3CC(=O)OCC)cnn1-c1ccccc1 (stereo not drawn) [Example 306, Ethyl [3-benzyl-2-oxo-8-(1-phenyl-5-propyl-1H-pyrazole-4-carbonyl)-1,4,8-triazaspiro[4,5]dec-1-yl]acetate]	85	68	–
Cc1cc(C)cc(CN2C(=O)C(CC(C)C)NC23CCN(C(=O)CN(C)C)CC3)c1 (stereo not drawn) [Example 309, 8-(2-Dimethylaminoacetyl)-1-(3,5-dimethylbenzyl)-3-isobutyl-1,4,8-triazaspiro[4,5]decan-2-one]	43	82	–
CCCc1ccc(C(=O)N2CCC3(CC2)NC(CC(C)C)C(=O)N3Cc2c(Cl)cccc2Cl)cc1 (stereo not drawn) [Example 317, 1-(2,6-Dichlorobenzyl)-3-isobutyl-8-(4-propylbenzoyl)-1,4,8-triazaspiro[4,5]decan-2-one]	33	62	–
C=CCN1C(=O)C(CCSC)NC12CCN(C(=O)c1cnn(-c3ccccc3)c1CCC)CC2 (stereo not drawn) [Example 323, 1-Allyl-3-(2-methylsulfanylethyl)-8-(1-phenyl-5-propyl-1H-pyrazole-4-carbonyl)-1,4,8-triazaspiro[4,5]decan-2-one]	33	43	–
Cc1ccc(C(=O)N2CCC3(CC2)NC(CC(C)C)C(=O)N3Cc2c(Cl)cccc2Cl)c(F)c1F (stereo not drawn) [Example 324, 1-(2,6-Dichlorobenzyl)-8-(2,3-difluoro-4-methylbenzoyl)-3-isobutyl-1,4,8-triazaspiro[4,5]decan-2-one]	31	62	–
CCOC(=O)CN1C(=O)C(Cc2ccccc2)NC12CCN(C(=O)COCc1ccccc1)CC2 (stereo not drawn) [Example 329, Ethyl [3-benzyl-8-(2-benzyloxyacetyl)-2-oxo-1,4,8-triazaspiro[4,5]dec-1-yl]acetate]	55	43	–
C=CCN1C(=O)C(CCSC)NC12CCN(C(=O)c1cc(C(C)(C)C)nn1C)CC2 (stereo not drawn) [Example 330, 1-Allyl-8-(5-tert-butyl-2-methyl-2H-pyrazole-3-carbonyl)-3-(2-methylsulfanylethyl)-1,4,8-triazaspiro[4,5]decan-2-one]	45	31	–

From patent US7951815B2, “Substituted 1,4,8-triazaspiro [4,5]decan-2-one compounds” (Gruenenthal GmbH, priority 2004, dated 2011)
